According to US20240002351A1, “QUINAZOLIN-4-ONE AND THIENO[2,3-D]PYRIMIDIN-4-ONE INHIBITORS OF ERBB4 (HER4) FOR USE IN THE TREATMENT OF CANCER” (UNIVERSITEIT ANTWERPEN, priority 2021, published 2024):

Assays:
C57BL/6N male mice = test: In vivo anti-fibrotic capacity, Angiotensin II left ventricular remodeling mouse model
Procedure: Left ventricular (LV) remodeling was induced in 13-week old C57BL/6N male mice by Angiotensin II (AngII, 1000 ng/kg/min, Sigma Aldrich) using a subcutaneous micro-osmotic pump (model 1004, Alzet). Next to AngII, the mice were also given a second s.c. micro-osmotic pump filled with selected hit compound (83 μg/kg/h) or vehicle. Control groups (sham, compound alone, AngII alone) were also implemented. After 4 weeks of treatment, mice were euthanized and hearts were collected.
Hearts were fixed and embedded in paraffin. The LV interstitial collagen fraction was determined in Masson trichrome blue-stained areas. Cardiomyocyte outlines were stained with antibodies specific for laminin (NB300-144; Novus Biologicals), and cardiomyocyte cross-sectional area was determined by averaging 20 representative cardiomyocytes per section per animal (5 sections/animal). Data was skewed, therefore log transformation was performed. Endothelial cells were stained with isolectin B4 (Vector Laboratories) and capillary density was determined as the number of capillaries per 100 cardiomyocytes by averaging the number of capillaries per cardiomyocytes on 5 images per animal. Capillaries and cardiomyocytes were counted (by an investigator blinded to the treatment protocol) per section per animal (5 sections/animal). Capillaries were normalized to tissue area to calculate capillary density.

[1] = system: Human atrial cardiac fibroblasts (HCF); test: In vitro fibrosis assay, TGFβ-stimulated HCF (qRT-PCR); assay type: cell-based; conditions: TGFβ 10 ng/mL, 24 hours (FIG. 9)
Procedure: (§1) Human dermal fibroblasts (HDF, Cell applications, 106-05A) were cultured in Dulbecco's modified Eagle's medium (DMEM, ThermoFisher Scientific, 11995065) supplemented with 10% (v/v) heat-inactivated fetal bovine serum (FBS, ThermoFisher Scientific, 10082147), 1% penicillin/streptomycin and 1 mL polymyxin B and were maintained at 37° C. in humidified atmosphere of 5% CO2 in air. Human atrial cardiac fibroblasts (HCF, Innoprot, P10454) were cultured in fibroblast medium (Innoprot, P60108) supplemented with fetal bovine serum, fibroblast growth supplement and penicillin/streptomycin and were maintained at 37° C. in humidified atmosphere of 5% CO2 in air.
Following 1-9 passages, HDF and HCF were seeded at 0.3×10^6 cells/well in 1 mL cell medium in 12-well plates and incubated overnight at 37° C. in humidified atmosphere of 5% CO2 in air. Next, cells were put on serum starved medium (0.1% FBS) for 8 hours and then stimulated for 24 hours with either PBS, active compound (4-32 μM) or non-active compound (NA1, NA2; 4-32 μM) on top of TGFβ (10 ng/mL, Peprotech, 100-21). […] Next, cells were lysed using 100 μL lysis buffer RA1 (of RNA isolation kit below) supplemented with β-mercapto-ethanol (100:1), scraped with a cell scraper and transferred to centrifuge tubes to be stored at −20° C. for a maximum of 2 weeks before RNA isolation.
RNA was extracted using Nucleospin RNA XS (Machery Nagel) according to the manufacturer's instructions. For cDNA synthesis, total RNA was added to a solution containing buffer with random hexamers and reverse transcriptase enzyme. The PCR was performed using the following parameters: 10 minutes at 25° C., 30 minutes at 48° C., 5 minutes at 95° C. RT-qPCR on the cDNA samples was performed using Taqman Universal PCR Master Mix (Applied Biosystems) and Taqman primers according to the manufacturer's instructions. […] Expression levels were calculated using the comparative cycle method and expressed as fold change to appropriate (background) control. […]

C57BL/6N mice = test: In vivo acute toxicity study; conditions: accumulative i.p. doses, hematoxylin and eosin staining (FIG. 15)
Procedure: An acute toxicity study was performed on C57BL/6N mice using accumulative doses of compound 1 (n=3) or vehicle (n=3, 10% DMSO). On day 1, mice received 0.4 mg/kg cpd 1, day 2 1.2 mg/kg, day 3 4 mg/kg, day 4 4 mg/kg by intraperitoneal injection. At day 4, 1 hour after injection of 4 mg/kg, the mice were sacrificed and the hearts, liver, and kidney excised. The histology of the organs was evaluated by hematoxylin and eosin staining.

[2] = Metabolic stability, human liver microsomes; assay type: in vitro ADME
Procedure: A mixture of 713 μL milliQ water (Millipore, MA, USA), 200 μL 0.5 M phosphate buffer (pH 7.4, BD Diagnostic Systems, MD, USA), 50 μL NADPH regenerating system solution A (BD Biosciences, CA, USA), 10 μL NADPH regenerating system solution B (BD Biosciences, CA, USA) and 2 μL compound (5 mM in DMSO) was prepared and heated for 5 min at 37° C. Twenty-five μL of liver microsomes (0.5 mg protein/mL, Corning B.V. Life Sciences, Amsterdam, Netherlands) was added to the mixture and 20 μL samples were withdrawn at 0, 0.25, 0.5 and 1, 2, 4, 6 and 24 hours. Eighty μL (4×20 μL) of cold acetonitrile (Sigma-Aldrich, MO, USA) was added to the samples on ice for 10 min. Afterwards, the mixtures were centrifuged at 13,000 rpm for 5 min at 4° C. Seventy-five μL of an acetonitrile/water (10/90) mixture was added to 25 μL supernatant and the obtained samples were analyzed by LC-MS/MS (Waters Acquity H-class UPLC system with ion trap mass spectrometer, Bruker Daltonics Esquire 3000 plus, and Agilent 1100 Series LC system) in triplicate.

[3] = system: Human dermal fibroblasts (HDF); test: In vitro fibrosis assay, TGFβ-stimulated HDF (qRT-PCR); assay type: cell-based; conditions: TGFβ 10 ng/mL, 4-32 μM (FIGS. 8C-8F)
Procedure: as §1
Following 1-9 passages, HDF and HCF were seeded at 0.3×10^6 cells/well in 1 mL cell medium in 12-well plates and incubated overnight at 37° C. in humidified atmosphere of 5% CO2 in air. Next, cells were put on serum starved medium (0.1% FBS) for 8 hours and then stimulated for 24 hours with either PBS, active compound (4-32 μM) or non-active compound (NA1, NA2; 4-32 μM) on top of TGFβ (10 ng/mL, Peprotech, 100-21). […]
RNA was extracted using Nucleospin RNA XS (Machery Nagel) according to the manufacturer's instructions. […] Expression levels were calculated using the comparative cycle method and expressed as fold change to appropriate (background) control. […]

| SMILES | capillary density compared to vehicle (C57BL/6N male mice; 4 weeks (FIG. 14D)) | myocardial fibrosis compared to angiotensin II/vehicle (C57BL/6N male mice; AngII 1000 ng/kg/min + compound 83 μg/kg/h s.c. pump, 4 weeks (FIG. 14A)) | HW:BW ratio (C57BL/6N male mice; add-on to angiotensin II, 4 weeks (FIG. 14B)) | cardiomyocyte cross sectional area compared to angiotensin II/vehicle (C57BL/6N male mice; add-on to angiotensin II, 4 weeks (FIG. 14C)) | col1a1 levels in comparison with TGFβ control [1] | histology of heart, liver and kidney (treated vs control group) (C57BL/6N mice) | t1/2 human ([2]; human liver microsomes) | half-life at 10 µM ([2]; human, liver microsomes, pH 7.4, human liver microsomes, read-out: t1/2 human) | antifibrotic effect (col1a1 and col3a1 levels) [3] | col3a1 levels in comparison with TGFβ control [1] |
| --- | --- | --- | --- | --- | --- | --- | --- | --- | --- | --- |
| O=C(NC1CC1)C(Sc1nc2ccccc2c(=O)n1C1CCCC1)c1ccccc1 (centres unmarked) [Compound 1] | significantly increased capillary density | significantly attenuated myocardial fibrosis | no effect | did increase | significantly decrease col1a1 levels | no significant difference in structures of cardiac, liver and renal cells |  |  |  |  |
| Cc1sc2nc(SC(C)C(=O)Nc3sccc3C(N)=O)n(CC(C)C)c(=O)c2c1C (centres unmarked) [Compound 6] |  |  |  |  |  |  | 17 min | 17 to 18 min | significant dose-dependent antifibrotic effects |  |
| CC(Sc1nc2ccccc2c(=O)n1C1CCCC1)c1nc2ccccc2n1C(F)F (centres unmarked) [Compound 7] |  |  |  |  |  |  |  |  | significant dose-dependent antifibrotic effects | significantly decreases col3a1 levels |
